Experimental data from patent US8841321B2, “Quinoline derivatives as antibacterial agents” (Janssen Pharmaceutica NV, priority 2005, dated 2014).
≈ marks a conversion by molar mass, not a printed value.

Tests used:
[1] = tested on: STA 29213 (Staphylococcus aureus (ATCC29213)); assay: Microtitre plate assay, IC90 determination; format: cell-based; settings: Staphylococcus aureus (ATCC29213)
Experimental: (§1) The bacteria used in this study were grown overnight in flasks containing 100 ml Mueller-Hinton Broth (Becton Dickinson—cat. no. 275730) in sterile de-ionized water, with shaking, at 37° C. Stocks (0.5 ml/tube) were stored at −70° C. until use. Bacteria titrations were performed in microtiter plates and colony forming units (CFUs) were determined. In general, an inoculum level of approximately 100 CFUs was used for susceptibility testing.
(§2) Flat-bottom, sterile 96-well plastic microtiter plates were filled with 180 μl of sterile deionized water, supplemented with 0.25% BSA. Subsequently, stock solutions (7.8× final test concentration) of compounds were added in 45 μl volumes in column 2. Serial five-fold dilutions (45 μl in 180 μl) were made directly in the microtiter plates from column 2 to reach column 11. Untreated control samples with (column 1) and without (column 12) inoculum were included in each microtiter plate. Depending on the bacteria type, approximately 10 to 60 CFU per well of bacteria inoculum (100 TCID50), in a volume of 100 μl in 2.8× Mueller-Hinton broth medium, was added to the rows A to H, except column 12. The same volume of broth medium without inoculum was added to column 12 in row A to H. The cultures were incubated at 37° C. for 24 hours under a normal atmosphere (incubator with open air valve and continuous ventilation). At the end of incubation, one day after inoculation, the bacterial growth was quantitated fluorometrically. Therefore resazurin (0.6 mg/ml) was added in a volume of 20 μl to all wells 3 hours after inoculation, and the plates were re-incubated overnight. A change in colour from blue to pink indicated the growth of bacteria. The fluorescence was read in a computer-controlled fluorometer (Cytofluor Biosearch) at an excitation wavelength of 530 nm and an emission wavelength of 590 nm. The % growth inhibition achieved by the compounds was calculated according to standard methods. The IC90 (expressed in μg/ml) was defined as the 90% inhibitory concentration for bacterial growth.

[2] = tested on: SPN 6305 (Streptococcus pneumoniae (ATCC6305)); assay: Microtitre plate assay, IC90 determination; format: cell-based; settings: Streptococcus pneumoniae (ATCC6305)
Experimental: as §1, §2

SMILES	IC90 (μg/ml) STA 29213 [1] [µg/mL]	IC90 (μg/ml) SPN 6305 [2] [µg/mL]
COc1nc2ccc(Br)cc2cc1C(c1ccccc1)C(O)(CCCCN(C)C)CCc1ccco1 (single isomer, unassigned) [Compound 129]	6.19 (≈ 11.2 µM)	1.74 (≈ 3.15 µM)
COc1nc2ccc(Br)cc2cc1C(c1ccccc1)C(O)(CCCCN(C)C)CCc1ccco1 (single isomer, unassigned) [Compound 130]	8.74 (≈ 15.8 µM)	6.19 (≈ 11.2 µM)
COc1nc2ccc(Br)cc2cc1C(c1ccccc1)C(O)(CCCCN1CCN(C)CC1)CCc1cccc2ccccc12 (single isomer, unassigned) [Compound 143]	10.57 (≈ 15.9 µM)	10.57 (≈ 15.9 µM)
COc1nc2ccc(Br)cc2cc1C(c1ccccc1)C(O)(CCCCc1ccccc1)CCCCN(C)C (single isomer, unassigned) [Compound 147]	9.34 (≈ 15.8 µM)	9.34 (≈ 15.8 µM)
COc1nc2ccc(Br)cc2cc1C(c1ccccc1)C(O)(CCCCc1ccccc1)CCCCN1CCCCC1 (single isomer, unassigned) [Compound 149]	1.99 (≈ 3.16 µM)	2.23 (≈ 3.54 µM)
CNCCCCCC(O)(c1ccccc1)C(c1ccccc1)c1cc2cc(C)ccc2nc1OC (single isomer, unassigned) [Compound 151]	1.7 (≈ 3.63 µM)	2.12 (≈ 4.52 µM)
COc1ccc(C(c2cc3cc(Br)ccc3nc2OC)C(O)(CCCCN(C)C)c2ccc3ccccc3c2)cc1 (single isomer, unassigned) [Compound 157]	2.44 (≈ 3.98 µM)	2.74 (≈ 4.47 µM)
COc1nc2ccc(Br)cc2cc1C(c1ccc(Cl)cc1)C(O)(CCCCN(C)C)c1ccc2ccccc2c1 (single isomer, unassigned) [Compound 164]	1.4 (≈ 2.27 µM)	0.31 (≈ 0.502 µM)

Further lines, results first:

IC90 (μg/ml) STA 29213 [1] [µg/mL]	IC90 (μg/ml) SPN 6305 [2] [µg/mL]	SMILES
1.73 (≈ 3.16 µM)	1.73 (≈ 3.16 µM)	COc1nc2ccc(Br)cc2cc1C(c1ccccc1)C(O)(CCCCN(C)C)Cc1ccccc1 (single isomer, unassigned) [Compound 127]
9.76 (≈ 15.9 µM)	5.49 (≈ 8.92 µM)	COc1nc2ccc(Br)cc2cc1C(c1ccccc1)C(O)(CCCCN1CCCCC1)CCCc1ccccc1 (single isomer, unassigned) [Compound 146]
1.99 (≈ 3.16 µM)	2.23 (≈ 3.54 µM)	COc1nc2ccc(Br)cc2cc1C(c1ccccc1)C(O)(CCCCc1ccccc1)CCCCN1CCCCC1 (single isomer, unassigned) [Compound 148]
3.8 (≈ 7.87 µM)	7.65 (≈ 15.8 µM)	COc1nc2ccc(C)cc2cc1C(c1ccccc1)C(O)(CCCCCN(C)C)c1ccccc1 (single isomer, unassigned) [Compound 153]
1.7 (≈ 3.1 µM)	1.7 (≈ 3.1 µM)	COc1nc2ccc(Br)cc2cc1C(c1ccccc1)C(O)(CCCCCN(C)C)c1ccccc1 (single isomer, unassigned) [Compound 155]
1.85 (≈ 3.17 µM)	2.07 (≈ 3.55 µM)	COc1nc2ccccc2cc1C(c1cccc(Br)c1)C(O)(CCCCN(C)C)c1ccc2ccccc2c1 (single isomer, unassigned) [Compound 160]
1.85 (≈ 3.17 µM)	2.07 (≈ 3.55 µM)	COc1nc2ccccc2cc1C(c1cccc(Br)c1)C(O)(CCCCN(C)C)c1ccc2ccccc2c1 (single isomer, unassigned) [Compound 161]
1.85 (≈ 3.17 µM)	2.07 (≈ 3.55 µM)	COc1nc2ccccc2cc1C(c1cccc(Br)c1)C(O)(CCCCN(C)C)c1ccc2ccccc2c1 (single isomer, unassigned) [Compound 162]
1 (≈ 1.62 µM)	0.31 (≈ 0.502 µM)	COc1nc2ccc(Br)cc2cc1C(c1cccc(Cl)c1)C(O)(CCCCN(C)C)c1ccc2ccccc2c1 (single isomer, unassigned) [Compound 163]
